# From patent publication US9144576B2, “Topical antiviral formulations” (3B Pharmaceuticals, Inc., priority 2008, dated 2015)
# How the values were obtained:
# HSV-1 = experiment: In vitro assay for anti-HSV-1 mRNA activity (QuantiGene Plex 2.0 bDNA) in infected primary Adult Human Dermal Microvascular Endothelial Cells; assay type: cell-based, HSV type 1; conditions: variable slope fit; for LogIC50 (best-fit value): concentrations in μM, overnight incubation, triplicate
# Experimental: (§1) In vitro assays for anti-HSV-1 and anti-HSV-2 mRNA activity are described in Example 1. Confluent Vero cell monolayers were infected with HSV type 1 or HSV type 2 at a multiplicity of infection of 10 and the resultant virus was used to infect primary Adult Human Dermal Microvascular Endothelial Cells for 1 hour; the supernatant was replaced with fresh culture media and then incubated overnight in the presence of various concentrations of acyclovir, 2-deoxy-D-glucose or an equimolar combination of the two compounds. After overnight incubation, the cells were harvested, lysed, and subjected to QuantiGene Plex 2.0 assay (Panomics, Inc., Fremont, Calif.) for quantitative assay of HSV-1 and HSV-2 mRNA. The QuantiGene Plex 2.0 assay combines branched DNA (bDNA) signal amplification and multi-analyte profiling beads (xMAP®) technologies to enable the detection and quantitation of multiple mRNA targets simultaneously. Briefly, confluent Vero cell monolayers were infected with HSV type 1 or HSV type 2 at a multiplicity of infection of 10 and the resultant virus was used to infect primary Adult Human Dermal Microvascular Endothelial Cells for 1 hour and then the supernatant was replaced with fresh culture media and then incubated overnight in the presence of various concentrations of acyclovir, 2-deoxy-D-glucose or an equimolar combination of the two compounds. […], this assay is considered to be a more sensitive and specific assay (bDNA) for the final readout when compared to an ELISA. The ELISA method while easier, can lack specificity to determine the difference between HSV1 and HSV2. The bDNA assay is a hybridization-based method of target-specific RNA quantitation that amplifies signal rather than target RNA, using labeled DNA probes. The QuantiGene Plex 2.0 system utilizes fluorescent microspheres (Capture Beads) as a support to capture specific RNA molecules. The ability to quantify multiple target-specific RNA molecules in a single sample lies in the design of the Probe Sets. […] The resulting fluorescence signal associated with individual Capture Beads is read on a Luminex flow cytometer. Signal is reported as median fluorescence intensity (MFI) and is proportional to the number of target RNA molecules present in the sample. […]
# HSV-2 = experiment: In vitro assay for anti-HSV-2 mRNA activity (QuantiGene Plex 2.0 bDNA) in infected primary Adult Human Dermal Microvascular Endothelial Cells; assay type: cell-based, HSV type 2; conditions: variable slope fit; for LogIC50 (best-fit value): concentrations in μM, overnight incubation, triplicate
# Experimental: as §1
# [1] = topical versus oral; cited from earlier work
SMILES,HillSlope (best-fit value) (HSV-1),LogIC50 (best-fit value) (HSV-1),HillSlope (best-fit value) (HSV-2),LogIC50 (best-fit value) (HSV-2),"drug concentration in the skin after local application, lower than after given orally [1]"
"O=CC[C@@H](O)[C@H](O)[C@H](O)CO [2 Deoxy D glucose, 2-deoxy-D-glucose]",−2.395,1.32,−3.957,0.9029,–
"Nc1nc2c(ncn2COCCO)c(=O)[nH]1 [Acyclovir, 9-(2-hydroxyethoxymethyl)guanine]",−1.108,0.2509,−1.113,0.2805,2-3 times
